The subject of experiment [1] is p57, p21, p27, Brg1 and EGFR expression. Kind of experiment: Quantitative RT-PCR in treated cell lines. It is filed as cell-based, human. Conditions: Sw1573, Calu6, H23, H460 and PC9; 1 μM DZNep, 4 days. As to the method:
RNA from treated cell lines was extracted from using Trizol. Equal amounts of RNA were incubated with DNAse I before cDNA was made using the SuperScript III™ kit (Invitrogen). Relative gene expression was assayed with Sybr green on the StepOnePlus™ Real-Time PCR System (Applied Biosystems). Relative expression was calculated by Gene of Interest (Ctreference-Ctexprimental)-CYPA(Ctreference-Ctexperimental) and graphed on the log 2 scale. For all experiments, the reference sample was a matched untreated or control transduced cell line. Primer sequences:
RNA from treated cell lines was extracted using Absolutely RNA™ kits (Agilent) and cDNA was made using the SuperScript III™ kit (Invitrogen). Relative gene expression was assayed with Sybr green on the StepOnePlus™ Real-Time PCR System (Applied Biosystems). Relative expression was calculated by Gene of Interest(Ctreference-Ctexperimental)-CYPA(Ctreference-Cteexperimental) and graphed on the log 2 scale. For all experiments, the reference sample was a matched untreated or control transduced cell line.

Another experiment has as its system PC9. The experiment in a line: Etoposide dose response curves in the presence of 5 μM cisplatin. It is filed as cell-based, human. Particulars: PC9 (sensitized), combination with DZNep. How it is done:
(§1) FIG. 25A is a Waterfall plot of cell line growth in 1 μM DZNep for 4 days compared to untreated cells, n=3-5 biological replicates, * indicates p<0.04, ** p<0.007. […] FIG. 25C is a pair of representative etoposide dose response curves performed in the presence of 5 μM cisplatin, the sensitized line PC9 (4.2-fold decrease, p<0.0001) and the protected line H23 (3.4-fold increase, p<0.0001) are shown.
(§2) Cell lines were dissociated, counted and plated at 5000 cells per well in flat bottom opaque tissue culture treated 96 well plates (CytoOne). Edge wells were filled with PBS. The following day, 2× drug diluted in media was added to each well such that the well then contained 100 ul media with 1× drug concentration at the following doses: etoposide; 0, 0.1, 1, 3, 5, 7, 10, 50, 100, 500 μM, cisplatin; 0, 0.1, 1, 5, 10, 30, 70, 100, 500 μM, or doxorubicin; 0, 0.01, 0.1, 0.5, 1, 3, 5, 7, 10, 50 μM. After 4 days, CELLTITER-GLO™ (Promega) was added and luminescence was read on a BioTec plate reader to determine relative cell number in each well. Data were averaged for triplicate or quadruplicate technical replicates and normalized to the untreated wells. Results from three or four independent biological replicate experiments were input into GRAPHPAD PRISM™ software to extrapolate IC50 and s.e.m. of IC50 for a given cell line.

The test system of the next experiment is H23. Described as above. It is filed as cell-based, human. Particulars: H23 (protected), combination with DZNep. How it is done:
as §1, §2

The subject of another experiment is human NSCLC lines. Kind of experiment: Cell line growth, 4 days (Cell Titer Glo). Particulars: 1 μM DZNep. It is filed as cell-based. As to the method:
(§3) Cell lines were dissociated, counted and plated at 5000 cells per well in flat bottom opaque tissue culture treated 96 well plates (CytoOne). Edge wells were filled with PBS. The following day, 2× drug diluted in media was added to each well such that the well then contained 100 ul media with 1× drug concentration. After 4 days, Cell Titer Glo™ (Promega) was added and luminescence was read on a BioTec plate reader to determine relative cell number in each well. Data were averaged for triplicate or quadruplicate technical replicates, normalized to the untreated wells and input into GraphPad Prism software to extrapolate IC50.
as §2, with “Results from three or four independent biological replicate experiments were input into GRAPHPAD PRISM™ software to extrapolate IC50 and s.e.m. of IC50 for a given cell line.” left out
On the technique in general: ATP-based viability assays read luminescence as a measure of living cells.

The test system of experiment [2] is HCC15. Kind of experiment: 7AAD cell cycle flow cytometry, stably transduced lines. It is filed as cell-based, human. How it is done:
(§4) Cell lines were plated at 1.5×10^6 cells per 10 cm plate and treated with drug for 4 days. Cells were then dissociated, fixed with 100% ice cold Ethanol for at least 2 hours, incubated for 30 minutes with 1 mg/mL RNase A and resuspended in 20 μg/mL 7AAD. 30,000 events were collected on the BD Facscalibur™ and analyzed with the ModFit LT™ software. In cases where etoposide treated cells had such abnormal ploidy that ModFit LT™ was unable to correctly model the cell cycle, the data was analyzed manually on FlowJo™ software by setting the gates on the etoposide sample and copying them to the etoposide+DZNep and etoposide shEZH2 samples.
(§5) For 7AAD-cell cycle analysis, cell lines were plated at 1.5×10^6 cells per 10 cm plate and treated with drug for 4 days. Cells were then dissociated, fixed with 100% ice cold Ethanol for at least 2 hours, incubated for 30 minutes with 1 mg/mL DNase-free RNase A (Thermo) and resuspended in 20 μg/mL 7-Aminoactinomycin D (7AAD; Invitrogen). 30,000 events were collected on the BD FORTESSA™ and analyzed with the MODFIT LT™ software. Results from three to four independent biological replicate experiments were averaged for each cell line.
A general note: A flow cytometer gives signals particle by particle.

In experiment [3] the test system is H460. Described as above. It is filed as cell-based, human. Conditions: etoposide treated H460 shBrg1 and EGFR over-expression. As to the method: as §4, §5
Experiment [4] has as its system HCC15. Kind of experiment: Etoposide dose response curves with or without DZNep, stably transduced lines. It is filed as cell-based, human. Particulars: HCC15 control cells. How it is done:
as §3
as §2, with “Results from three or four independent biological replicate experiments were input into GRAPHPAD PRISM™ software to extrapolate IC50 and s.e.m. of IC50 for a given cell line.” left out

Experiment [5] concerns H460. The experiment is described as above. The format is cell-based, human. Particulars: H460 control cells. As to the method:
as §3
as §2, with “Results from three or four independent biological replicate experiments were input into GRAPHPAD PRISM™ software to extrapolate IC50 and s.e.m. of IC50 for a given cell line.” left out

The test system of the next experiment is EZH2 and H3K27me3. Kind of experiment: Western Blot for EZH2 and H3K27me3 on whole cell extracts. It is filed as cell-based, human. Particulars: 1 μM DZNep, 4 days. As to the method: For Western blotting, 25 μg of protein extract per sample was denatured with heat and reducing agents, separated on a 4-12% acrylimide gel and transferred to nitrocellulose. Antibodies used for Western blotting were: EZH2 (Cell Signalling), β-actin (AbCAM) and H3K27me3 (Upstate).
Whole cell extracts were made in RIPA buffer (0.5% Deoxycholate, 1% IGEPAL-CA630, 0.1% sodium dodecyl sulfate, 150 mM NaCL, 50 mM Tris-8.1), lysates were cleared by centrifugation, and protein concentrations were quantified with the Pierce BCA Protein Assay Kit (Thermo). For Western blotting, 25 μg of protein extract per sample was denatured with heat and reducing agents, separated on a 4-12% acrylimide gel (BioRad) and transferred to nitrocellulose (GE Healthcare). Antibodies used for Western blotting were: EZH2 (clone D2C9; Cell Signaling; 1:200), Histone H3 (polyclonal; AbCAM ab1791; 1:2000) and H3K27me3 (polyclonal; Millipore 07-449; 1:1000) all incubated overnight at 4° C. Secondary antibody, anti-rabbit-HRP (Santa Cruz sc-2313; 1:5,000), was incubated for 1 hour at room temperature. After washing, chemi-luminescence was visualized with Western Lightning Plus-ECL (PerkinElmer) and exposure onto KODAK BioMax XAR™ film.
In general terms: A western blot detects proteins with antibodies after separation by electrophoresis.

Molecules are shown by their SMILES. “Also recorded” adds a separate entry of the source.

As for `Nc1nccc2c1ncn2[C@@H]1C=C(CO)[C@@H](O)[C@H]1O` [DZNep, 3-Deazaneplanocin A], the BRG1 transcript entry in experiment [1] is recorded as “reproducibly increased”. Besides, the “decrease in etoposide IC50” value with PC9 is given as 4.2 fold. Also, the “increase in etoposide IC50” value with H23 stood at 3.4 fold. For the same compound, the “average reduction in growth of the cell lines” value in the experiment on human NSCLC lines (4-day time point) was 20%. In addition, the “cell lines showing a significant reduction in growth” value with human NSCLC lines (4-day time-point, panel of 26 lines) is 11 of 26. Further, the results for the “S phase change in response to DZNep” value with HCC15 [2] (etoposide treated HCC15 Brg1 over-expression), in the experiment with HCC15 [2] (etoposide treated HCC15 shEGFR) and in the experiment on H460 [3] were “dramatically smaller accumulation in S phase; also recorded: did not accumulate in S phase”, “decrease in S phase; also recorded: no additional increase in S phase” and “enriched for S phase”, respectively. In the experiment with HCC15 [4], the “decrease in etoposide IC50 in response to DZNep” value is listed as 2 fold. Moreover, the “increase in etoposide IC50 in response to DZNep” value with H460 [5] is recorded as 2 fold. For the same compound, in the experiment with EZH2 and H3K27me3, the “EZH2 protein abundance and H3K27me3 catalytic mark” value is “effectively reduced”.
